According to ChEMBL document CHEMBL6182902, “Design, synthesis, and discovery of cinnamoyl amide derivatives as potent NagZ inhibitors with antibacterial activity” (Eur J Med Chem, 2025):
The source made the active and inactive calls. No cut-off for these calls is given here.

Tested on: not listed separately
Test: Inhibition of recombinant N-terminal His-tagged Escherichia coli BL21 NagZ extracted from Escherichia coli BL21 using pNP-GlcNAc as substrate by absorbance based assay

SMILES | Ki [nM]
CC(=O)N[C@H]1/C(=N/OC(=O)Nc2ccccc2)O[C@H](CO)[C@@H](O)[C@@H]1O [PUGNAC] | 75

Tested on: Escherichia coli
Test: Inhibition of recombinant N-terminal His-tagged Escherichia coli BL21 NagZ extracted from Escherichia coli BL21 using pNP-GlcNAc as substrate at 100 uM by absorbance based assay relative to control

SMILES | inhibition
O=C(/C=C/c1cccc([N+](=O)[O-])c1)N[C@@H](Cc1ccc(I)cc1)C(=O)O | 42.1%
COC(=O)C(Cc1ccc(Br)cc1)NC(=O)/C=C/c1ccc(F)cc1 (racemic) | 7.2%
O=C(/C=C/c1ccc(Cl)c(Cl)c1)N[C@@H](Cc1c[nH]c2ccccc12)C(=O)O | 68.2%
COC(=O)[C@H](Cc1ccccc1)NC(=O)/C=C/c1ccc(Br)cc1 | inactive
O=C(/C=C/c1ccc(O)cc1)N[C@@H](Cc1ccc(I)cc1)C(=O)O | 46.2%
COC(=O)[C@H](Cc1ccccc1)NC(=O)/C=C/c1ccc(Cl)c(Cl)c1 | inactive
O=C(/C=C/c1ccc(Cl)cc1)NC(Cc1ccc(Br)cc1)C(=O)O (racemic) | 37.2%
O=C(O)[C@H](Cc1ccc(I)cc1)NC(=O)[C@H]1C[C@@H]1c1ccccc1 | 29.1%
COC(=O)C(Cc1ccc(Br)cc1)NC(=O)/C=C/c1ccc(Cl)cc1 (racemic) | inactive
O=C(/C=C\c1ccccc1)N[C@@H](Cc1ccc(I)cc1)C(=O)O | 12%
O=C(/C=C/c1ccc(Cl)c(Cl)c1)N[C@@H](Cc1ccccc1)C(=O)O | 50.4%
O=C(/C=C/c1ccccc1)N[C@@H](Cc1ccc(I)cc1)C(=O)O | 20.2%
O=C(/C=C/c1ccc([N+](=O)[O-])o1)N[C@H](Cc1ccc(Br)cc1)C(=O)O | 38.2%
O=C(/C=C/c1ccc(F)cc1)NC(Cc1ccc(Br)cc1)C(=O)O (racemic) | 17.5%
O=C(/C=C/c1ccc(Br)cc1)N[C@H](Cc1ccc(Br)cc1)C(=O)O | 46.5%
COC(=O)[C@H](Cc1ccc(I)cc1)NC(=O)/C=C/c1ccc(F)cc1 | 14%
O=C(/C=C/c1ccc(F)c(Cl)c1)N[C@H](Cc1ccc(Br)cc1)C(=O)O | 71.6%
O=C(/C=C/c1ccc(Cl)cc1)N[C@H](Cc1ccc(Br)cc1)C(=O)O | 49.8%
O=C(/C=C/c1ccc(F)c(Cl)c1)N[C@@H](Cc1ccc(I)cc1)C(=O)O | 72%

SMILES | inhibition
O=C(/C=C/c1ccc(I)cc1)N[C@H](Cc1ccc(Br)cc1)C(=O)O | 76.1%
O=C(/C=C/c1ccco1)N[C@@H](Cc1ccc(I)cc1)C(=O)O | 35.8%
O=C(/C=C/c1ccc(F)c(F)c1)N[C@@H](Cc1ccc(I)cc1)C(=O)O | 30.5%
O=C(/C=C/c1ccc(Cl)c(Cl)c1)NC(Cc1ccc(Cl)cc1)C(=O)O (racemic) | 77.1%
O=C(/C=C/c1ccc(F)cc1)N[C@@H](Cc1ccc(I)cc1)C(=O)O | 34.3%
O=C(/C=C/c1ccc([N+](=O)[O-])cc1)N[C@@H](Cc1ccc(I)cc1)C(=O)O | 37.2%
O=C(C#Cc1ccccc1)N[C@@H](Cc1ccc(I)cc1)C(=O)O | 29.7%
O=C(CCc1ccc(Cl)c(Cl)c1)N[C@@H](Cc1ccc(I)cc1)C(=O)O | 73.5%
COC(=O)[C@H](Cc1ccc(I)cc1)NC(=O)/C=C/c1ccc(Cl)c(Cl)c1 | inactive
COC(=O)[C@H](Cc1ccccc1)NC(=O)/C=C/c1cccc(Cl)c1 | 11.6%
COC(=O)C(Cc1ccc(Br)cc1)NC(=O)/C=C/c1ccc(Cl)c(Cl)c1 (racemic) | inactive
O=C(/C=C/c1cc(F)c(F)c(F)c1)N[C@@H](Cc1ccc(I)cc1)C(=O)O | 60.3%
O=C(/C=C/c1ccccc1)N[C@H](Cc1ccc(Br)cc1)C(=O)O | 15.9%
O=C(/C=C/c1ccc(Br)cc1)N[C@@H](Cc1ccccc1)C(=O)O | 16.9%
O=C(CCc1ccccc1)N[C@@H](Cc1ccc(I)cc1)C(=O)O | 21.5%
O=C(/C=C/c1ccc([N+](=O)[O-])o1)N[C@@H](Cc1ccc(I)cc1)C(=O)O | 48.4%
O=C(/C=C/c1ccc(O)c(O)c1)N[C@@H](Cc1ccc(I)cc1)C(=O)O | 66.5%
O=C(/C=C/c1cccc(Cl)c1)N[C@@H](Cc1ccccc1)C(=O)O | 19.9%
